Test results published in patent EP0888346B1, “CORALYNE ANALOGS AS TOPOISOMERASE INHIBITORS” (RUTGERS, THE STATE UNIVERSITY OF NEW JERSEY, priority 1996, dated 1997).

Columns and labels:
[1] = system: yeast cells expressing human topoisomerase I; assay: Yeast cytotoxicity assay, strain expressing human topo I; format: cell-based, S. cerevisiae; details: plates with 1 µM drug (camptothecin 0.5 µM), 3 days at 30°C
Description: (§1) It has been established that yeast can survive when topoisomerase I function is obliterated, and that the topoisomerase I poisons only kill cells having a functional topoisomerase I (Bjornsti et al. Cancer Res. 49:6318-6323 (1989)).
(§2) The topoisomerase I-specific in vivo cytotoxicity assay was adapted from Knab et al. (Knab et al., J. Biol. Chem. 268:22322-22330 (1993)). In this system, various topo I genes cloned into the single copy yeast plasmid vector, YCpGAL1 (Knab et al., J. Biol. Chem. 268:22322-22330 (1993)), are expressed under the control of the GAL1 promoter in the JN2-134 strain of S. cerevisiae (MATa, rad52::LEU2, trp1, ade2-1,his7, ura3-52, isel, top1-1, leu2) (Bjornsti et al., Cancer Res. 49:6318-6323 (1989)). The topo I constructs in the vector are, respectively, the wild-type yeast topo I (YCpGAL-ScTOP1), a non-functional yeast topo I where the active site tyrosine-727 is mutated to a phenylalanine (YCpGAL1-Sctop1Y727F) (Knab et al., J. Biol. Chem. 268:22322-22330 (1993)), and the wild type human topoisomerase I (YCpGAL-hTOP1) (Bjornsti et al., Cancer Res. 49:6318-6323 (1989)). To qualitatively test the cytotoxicity and the topo I specificity of the drugs, yeast cells containing the specific plasmid were serially diluted (5-fold) and were grown in dropout medium supplemented with uracil and 2% galactose In addition, the plates contained: A: Control, no drug in the plate; B: Camptothecin (CPT), 0.5 µM; C: Coralyne, 1 µM; D: Methylenedioxy-dihydro-demethyl-coralyne (MDD-Coralyne), 1 µM, and E: Nitidine, 1 µM. The plates were grown for 3 days at 30°C to assess the lethal effect of the different compounds on the various topoisomerase I enzymes expressed in S. cerevisiae.and the drug being tested.

[2] = system: yeast cells expressing functional yeast topoisomerase I; assay: Yeast cytotoxicity assay, strain expressing wild-type yeast topo I; format: cell-based, S. cerevisiae; details: plates with 1 µM drug (camptothecin 0.5 µM), 3 days at 30°C
Description: as §1, §2

[3] = system: yeast cells expressing non-functional yeast topoisomerase I; assay: Yeast cytotoxicity assay, strain expressing non-functional yeast topo I; format: cell-based, S. cerevisiae; details: plates with 1 µM drug (camptothecin 0.5 µM), 3 days at 30°C
Description: as §1, §2

[4] = target: T1, recombinant CPT-K5 topoisomerase I (Homo sapiens, UniProt P11387, D533G); assay: Cleavage assay with camptothecin-resistant mutant topo I; format: biochemical; details: relative to wildtype human topoisomerase I
T1 construct: 15 amino acid vector-derived fusion (pET-11a leader); made in house; host or cells: E. coli BL21(DE3)
T1 sequence (P11387 1-765 D533G): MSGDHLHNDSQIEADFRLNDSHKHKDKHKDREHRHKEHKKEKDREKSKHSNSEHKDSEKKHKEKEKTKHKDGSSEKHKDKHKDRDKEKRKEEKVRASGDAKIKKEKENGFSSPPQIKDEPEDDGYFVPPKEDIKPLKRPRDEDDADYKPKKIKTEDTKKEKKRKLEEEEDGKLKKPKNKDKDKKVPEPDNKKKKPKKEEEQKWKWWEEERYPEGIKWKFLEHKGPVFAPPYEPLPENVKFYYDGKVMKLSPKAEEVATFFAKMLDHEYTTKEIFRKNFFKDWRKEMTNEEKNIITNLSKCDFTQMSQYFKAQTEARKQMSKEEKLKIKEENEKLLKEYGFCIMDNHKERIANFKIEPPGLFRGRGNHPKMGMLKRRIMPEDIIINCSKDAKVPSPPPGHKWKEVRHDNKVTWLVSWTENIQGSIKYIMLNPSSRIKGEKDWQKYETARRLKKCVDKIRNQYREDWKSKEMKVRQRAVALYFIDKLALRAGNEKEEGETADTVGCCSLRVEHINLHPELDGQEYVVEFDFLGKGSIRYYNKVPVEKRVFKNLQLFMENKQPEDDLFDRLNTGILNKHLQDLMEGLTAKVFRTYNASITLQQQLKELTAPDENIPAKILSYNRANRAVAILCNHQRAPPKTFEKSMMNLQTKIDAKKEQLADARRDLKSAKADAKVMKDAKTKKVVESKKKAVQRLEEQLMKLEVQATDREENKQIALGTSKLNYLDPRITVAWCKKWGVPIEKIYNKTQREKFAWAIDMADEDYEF
Protocol: Cleavage assays for the recombinant topoisomerases I and calf thymus topoisomerases I and II were done as described (Liu et al., J. Biol. Chem. 258:15365-15370 (1983)). The plasmid YEpG DNA used for the cleavage assays was prepared and labeled at its 3'-end using the published procedures.

[5] = system: Human lymphoblast RPMI 8402 cells; assay: MTT-microtiter plate tetrazolinium cytotoxicity assay (MTA); format: cell-based; details: Homo sapiens, RPMI 8402, 96 h, read-out: Cytotoxicity RPMI 8402
Description: (§3) The results were plotted and the IC50 then measured.

[6] = system: human epidermoid carcinoma KB 3-1 cell line; assay: MTA cytotoxicity assay, epidermoid carcinoma cells; format: cell-based; details: KB 3-1, 96 h, read-out: Cytotoxicity KB3-1
Protocol: as §3
(§4) The coralyne analog 7c was tested for its effectiveness against glioblastoma cells. The assay used was similar to that described above for the RPMI-8402 cell line. The results are shown in table 2 below which compares the effect of Compound 7c against the leukemia cell line (RPMI 8402), epidermal carncinoma (KB3-1) and glioblastoma (SF-268): Table 2

[7] = system: glioblastoma cell line SF-268; assay: MTA cytotoxicity assay, glioblastoma cells; format: cell-based; details: Homo sapiens, SF-268, 96 h, read-out: Cytotoxicity SF-268
Protocol: as §3, §4

COc1cc2c[n+](C)c3c4cc5c(cc4ccc3c2cc1OC)OCO5 [Nitidine, nitidine]
cytotoxicity against yeast cells expressing human topoisomerase I (in words) [1]: highly cytotoxic
cytotoxicity against yeast cells expressing functional yeast topoisomerase I (in words) [2]: not cytotoxic
cytotoxicity against yeast cells expressing non-functional yeast topoisomerase I (in words) [3]: not cytotoxic
resistance of recombinant CPT-K5 topoisomerase I to the drug [4]: less than 10 fold

COc1cc2cc3c4cc(OC)c(OC)cc4cc[n+]3c(C)c2cc1OC [coralyne]
IC50 [5]: 3 µg/mL
IC50 [6]: 0.9 µg/mL
IC50 [7]: 0.1 µg/mL
cytotoxicity against yeast cells expressing human topoisomerase I (in words) [1]: no cytotoxicity
cytotoxicity against yeast cells expressing functional yeast topoisomerase I (in words) [2]: resistant
cytotoxicity against yeast cells expressing non-functional yeast topoisomerase I (in words) [3]: no cytotoxicity
